The record followed here is patent US20150056269A1, “LIPOSOME COMPRISING AT LEAST ONE CHOLESTEROL DERIVATIVE” (TROPHOS, priority 2011, published 2015).

Data set [1] can be described thus: Maximum solubility of the compounds of formula (I) in water and different solvents. In kind it is physicochemical. The conditions noted are these: for solubility: read-out: Maximum solubility (concentration). On the procedure:
The maximum solubility of the compounds of formula (I) was tested in water and different solvents: […]

A short description of data set [2]: Suspensions of EPC liposomes containing the derivatives of formula (I): concentration in liposomes and particle size. As to conditions: for Particle size (nm): EPC liposomes containing the compound; for Concentration of compound in mg/mL in the liposomes: EPC liposomes, after extrusion and solvent removal. In kind it is physicochemical. The procedure:
A solution of lipids at 250 mg/mL is prepared by dissolving defined quantities of EPC and the compound of formula (I) in tert-butanol or a mixture of tert-butanol and absolute ethanol (v/v). This lipid solution is mixed at a certain temperature with aqueous buffer in order to obtain a final concentration of solvent of 15 to 17% and of product of formula (I) of […].
The large multilamellar vesicles are then extruded at a fixed temperature through 3 polycarbonate filters by 10 consecutive passes. The non encapsulated compound of formula (I) is removed on the filters.
The solvent is eliminated by filtration on membrane by washing with buffer in order to achieve a percentage of final solvent of the order of 0.4%.

The mark [3] stands for this setting: Liposome based on egg phospholipids.
The mark [4] stands for this setting: liposome based on egg phospholipids, oil or lipid.

Values after ≈ are worked out from the molar mass of the structure shown. Where two headings read alike, the source gives them in different places.

Regarding `CC(C)CCCC(C)C1CCC2C3CCC(=NO)C(C)(CCCO)C3CCC12C` (centres unmarked) [Compound 1, 3-hydroxy-3,5-seco-4-norcholestan-5-one oxime], the “Maximum solubility (concentration)” value in data set [1] ((2-hydroxypropyl)-beta-cyclodextrin, 30% PBS buffer) was determined as 700 µg/mL; in data set [1] (Intralipid 10), 1000 µg/mL; in data set [1] (Intralipid 10/Solutol HS15/ethanol 92/3/5) it was 5000 µg/mL; in data set [1] (setting [3]), 30000 µg/mL; in data set [1] (Soya oil), 6000 µg/mL; in data set [1] (Water), 1 µg/mL. In data set [2], the “Particle size (nm)” value came out at 81.4 nm. Also, in data set [2], the “Concentration of compound in mg/mL in the liposomes” value (“Concentration of compound in mg/mL” below) was 8.1 mg/mL.
On to `CC(C)CCCC(C)C1CCC2C3CCC(=NO)C(C)(CCC(C)(C)O)C3CCC12C` (centres unmarked) [Compound 2, 3,3-dimethyl-3-hydroxy-3,5-seco-4-norcholestan-5-one oxime], for which, in data set [2], the “Particle size (nm)” value worked out at 79.5 nm and the “Concentration of compound in mg/mL” value was 9.2 mg/mL.
With `CC(C)CCC[C@@H](C)[C@H]1CC[C@H]2[C@@H]3CCC4=CC(=NO)CC[C@]4(C)[C@H]3CC[C@]12C` [Compound 3, cholest-4-en-3-one oxime], the solubility in data set [1] (setting [4]) was 12400 µg/mL (≈ 31000 µM); in data set [1] (water) it was 0.1 µg/mL (≈ 0.25 µM). Besides, the “Particle size (nm)” value in data set [2] was found to be 88.9 nm. For the same molecule, in data set [2], the “Concentration of compound in mg/mL” value is 12.4 mg/mL.
In the case of `CC(C)=CCC[C@@H](C)[C@H]1CC[C@H]2[C@@H]3CCC4=CC(=NO)CC[C@]4(C)[C@H]3CC[C@]12C` [Compound 4, cholest-4,24-dien-3-one oxime], the solubility in data set [1] (Intralipid 10, oil or lipid) stood at 340 µg/mL (≈ 855 µM); in data set [1] (setting [4]), 14500 µg/mL (≈ 36500 µM); in data set [1] (water), 0.1 µg/mL (≈ 0.251 µM). Besides, the “Particle size (nm)” value in data set [2] was determined as 80.7 nm. In data set [2], the “Concentration of compound in mg/mL” value came to 14.5 mg/mL.
For the molecule `CC(C)CCC[C@@H](C)[C@H]1CC[C@H]2[C@@H]3CCC4=C(F)C(=NO)CC[C@]4(C)[C@H]3CC[C@]12C` [Compound 5, 4-fluoro-cholest-4-en-3-one oxime], in data set [2], the “Particle size (nm)” value is given as 79.1 nm and the “Concentration of compound in mg/mL” value came to 3.6 mg/mL.
For the molecule `CCC[C@@]1(C)C(=NO)CC[C@H]2[C@@H]3CC[C@H]([C@H](C)CCCC(C)C)[C@@]3(C)CC[C@@H]21` [Compound 6, 3,5-seco-4-norcholestan-5-one oxime], the figures for the “Maximum solubility (concentration)” value in data set [1] (Intralipid 10), in data set [1] (setting [3]) and in data set [1] (Water) were 400 µg/mL, 8200 µg/mL and 0.1 µg/mL, respectively. For the same molecule, the “Particle size (nm)” value in data set [2] is 84.7 nm. Besides, in data set [2], the “Concentration of compound in mg/mL” value was 8.2 mg/mL.
Regarding `CC(C)CCC[C@@H](C)[C@H]1CC[C@H]2[C@@H]3CCC4=CC(=O)CC[C@]4(C)[C@H]3CC[C@]12C` [Compound 7, cholest-4-en-3-one], in data set [2], the “Concentration of compound in mg/mL” value was found to be 12.1 mg/mL.
`CC(C)CCCC(C)C1CCC2C3CCC(=O)C(C)(CCCO)C3CCC12C` (centres unmarked) [Compound 8, 3-hydroxy-3,5-seco-4-norcholestan-5-one]: the “Concentration of compound in mg/mL” value in data set [2] amounted to 11.4 mg/mL.
For `CC(C)=CCC[C@@H](C)[C@H]1CC[C@H]2[C@@H]3CCC4=CC(=O)CC[C@]4(C)[C@H]3CC[C@]12C` [Compound 9, cholest-4,24-dien-3-one], in data set [2], the “Concentration of compound in mg/mL” value is 10.1 mg/mL.
